≈ marks a conversion by molar mass, not a printed value.
Tests used:
[1] = system: Escherichia coli; test: Antimicrobial activity against Escherichia coli assessed as zone of inhibition at 600 ug/ml after 24 hrs by disk diffusion method; format: functional; details: read-out: IZ
[2] = system: Staphylococcus aureus; test: Antimicrobial activity against Staphylococcus aureus; format: functional
[3] = system: Klebsiella pneumoniae; test: Antimicrobial activity against Klebsiella pneumoniae; format: functional
[4] = system: Proteus vulgaris; test: Antimicrobial activity against Proteus vulgaris; format: functional
[5] = system: Streptococcus pyogenes; test: Antimicrobial activity against Streptococcus pyogenes; format: functional
[6] = system: Pseudomonas aeruginosa; test: Antimicrobial activity against Pseudomonas aeruginosa; format: functional
[7] = system: Bacillus subtilis; test: Antimicrobial activity against Bacillus subtilis; format: functional
[8] = system: Escherichia coli; test: Potency index, ratio of streptomycin MIC to test compound MIC for antimicrobial activity against Escherichia coli; format: functional
[9] = system: Escherichia coli; test: Antimicrobial activity against Escherichia coli; format: functional
[10] = system: Bacillus subtilis; test: Potency index, ratio of streptomycin MIC to test compound MIC for antimicrobial activity against Bacillus subtilis; format: functional
[11] = system: Pseudomonas aeruginosa; test: Potency index, ratio of streptomycin MIC to test compound MIC for antimicrobial activity against Pseudomonas aeruginosa; format: functional
[12] = system: Bacillus subtilis; test: Antimicrobial activity against Bacillus subtilis assessed as zone of inhibition at 100 ug/ml; format: functional; details: read-out: IZ
[13] = system: Staphylococcus aureus; test: Antimicrobial activity against Staphylococcus aureus assessed as zone of inhibition at 100 ug/ml; format: functional; details: read-out: IZ
[14] = system: Streptococcus; test: Antimicrobial activity against Streptococcus assessed as zone of inhibition at 100 ug/ml; format: functional; details: read-out: IZ
[15] = system: Escherichia coli; test: Antimicrobial activity against Escherichia coli assessed as zone of inhibition at 100 ug/ml; format: functional; details: read-out: IZ
[16] = system: NIH3T3; test: Cytotoxicity against mouse NIH/3T3 cells assessed as reduction in cell viability; format: cell-based
[17] = system: C6; test: Anticancer activity against rat C6 cells; format: functional, cell-based
[18] = system: Escherichia coli; test: Potency index, ratio of ciprofloxacin MIC to test compound MIC for antimicrobial activity against Escherichia coli; format: functional
[19] = system: Bacillus subtilis; test: Potency index, ratio of ciprofloxacin MIC to test compound MIC for antimicrobial activity against Bacillus subtilis; format: functional
[20] = system: Aspergillus flavus; test: Antifungal activity against Aspergillus flavus; format: functional
[21] = system: Trichothecium roseum; test: Antifungal activity against Trichothecium roseum; format: functional
[22] = system: Talaromyces purpureogenus; test: Antifungal activity against Penicillium purpurogenum; format: functional
[23] = system: Bacillus cereus; test: Antimicrobial activity against Bacillus cereus; format: functional
[24] = system: Bacillus subtilis; test: Antimicrobial activity against Bacillus subtilis assessed as zone of inhibition at 30 ug/ml; format: functional; details: read-out: IZ
[25] = system: Staphylococcus aureus; test: Antimicrobial activity against Staphylococcus aureus assessed as zone of inhibition at 250 ug/ml; format: functional; details: read-out: IZ
[26] = system: Candida albicans; test: Antifungal activity against Candida albicans assessed as zone of inhibition at 30 ug/ml; format: functional; details: read-out: IZ
[27] = system: Staphylococcus aureus; test: Antimicrobial activity against Staphylococcus aureus assessed as zone of inhibition at 30 ug/ml; format: functional; details: read-out: IZ
[28] = system: Escherichia coli; test: Antimicrobial activity against Escherichia coli assessed as zone of inhibition at 250 ug/ml after 24 hrs by disk diffusion method; format: functional; details: read-out: IZ
[29] = system: Pseudomonas aeruginosa; test: Antimicrobial activity against Pseudomonas aeruginosa assessed as zone of inhibition at 30 ug/ml; format: functional; details: read-out: IZ
[30] = system: Bacillus cereus; test: Antimicrobial activity against Bacillus cereus assessed as zone of inhibition at 250 ug/ml; format: functional; details: read-out: IZ
[31] = system: Candida albicans; test: Antifungal activity against Candida albicans assessed as zone of inhibition at 250 ug/ml; format: functional; details: read-out: IZ
[32] = system: Escherichia coli; test: Antimicrobial activity against Escherichia coli assessed as zone of inhibition at 250 ug/ml; format: functional; details: read-out: IZ
[33] = system: Pseudomonas aeruginosa; test: Antimicrobial activity against Pseudomonas aeruginosa assessed as zone of inhibition at 250 ug/ml; format: functional; details: read-out: IZ
[34] = system: Escherichia coli; test: Antimicrobial activity against Escherichia coli assessed as zone of inhibition at 30 ug/ml; format: functional; details: read-out: IZ
[35] = system: Aspergillus niger; test: Antifungal activity against Aspergillus niger assessed as zone of inhibition at 250 ug/ml; format: functional; details: read-out: IZ
[36] = system: Aspergillus fumigatus; test: Antifungal activity against Aspergillus fumigatus assessed as zone of inhibition at 30 ug/ml; format: functional; details: read-out: IZ
[37] = AUC in rat; format: ADME; details: in vivo
[38] = Half life in rat; format: ADME; details: in vivo
[39] = system: Bacillus subtilis; test: Antimicrobial activity against Bacillus subtilis assessed as zone of inhibition at 10 ug/ml; format: functional; details: read-out: IZ
[40] = system: Pseudomonas aeruginosa; test: Antimicrobial activity against Pseudomonas aeruginosa assessed as zone of inhibition at 10 ug/ml; format: functional; details: read-out: IZ
[41] = system: Candida albicans; test: Antifungal activity against Candida albicans; format: functional
[42] = system: Staphylococcus aureus; test: Antimicrobial activity against Staphylococcus aureus assessed as zone of inhibition at 10 ug/ml; format: functional; details: read-out: IZ
[43] = system: Escherichia coli; test: Antimicrobial activity against Escherichia coli assessed as zone of inhibition at 10 ug/ml; format: functional; details: read-out: IZ
[44] = system: Candida albicans; test: Antifungal activity against Candida albicans assessed as zone of inhibition at 10 ug/ml; format: functional; details: read-out: IZ
[45] = system: Aspergillus fumigatus; test: Antifungal activity against Aspergillus fumigatus assessed as zone of inhibition at 10 ug/ml; format: functional; details: read-out: IZ
[46] = Clearance in rat; format: ADME; details: in vivo

c1ccc2c(c1)sc1nnnn12
zone of inhibition at 600 µg/mL [1]: 15 to 20 mm

O=C(O)c1cn(C2CC2)c2cc(N3CCN(C(=O)Cn4nnnc4S)CC3)c(F)cc2c1=O
MIC [2]: 2 to 128 µg/mL (≈ 4.22 to 270 µM) | MIC [3]: 2 to 128 µg/mL (≈ 4.22 to 270 µM) | MIC [4]: 2 to 128 µg/mL (≈ 4.22 to 270 µM) | MIC [5]: 2 to 128 µg/mL (≈ 4.22 to 270 µM)

O=c1c(OCc2nnn[nH]2)c(-c2ccc(F)cc2)oc2ccccc12
MIC [6]: 100 µg/mL (≈ 296 µM) | MIC [2]: 100 µg/mL (≈ 296 µM) | MIC [7]: 100 µg/mL (≈ 296 µM) | Ratio [8]: 2 - 4 | MIC [9]: 100 µg/mL (≈ 296 µM) | Ratio [10]: 2 - 4 | Ratio [11]: 2 - 4

Clc1cccc(-c2nnc(SCc3ccc(-c4ccccc4-c4nn[nH]n4)cc3)o2)c1
zone of inhibition at 100 µg/mL [12]: 20 to 27 mm | zone of inhibition at 100 µg/mL [13]: 20 to 27 mm | zone of inhibition at 100 µg/mL [14]: 20 to 27 mm | zone of inhibition at 100 µg/mL [15]: 20 to 27 mm

O=C(CSc1nnnn1-c1ccccc1)N/N=c1\scc(-c2ccccc2)n1-c1ccccc1
IC50 [16]: 417 µg/mL (≈ 858 µM) | IC50 [17]: 8.3 µg/mL (≈ 17.1 µM)

COc1cccc(OC)c1/C=C1\SC(=O)N(Cc2ccc(-c3ccccc3-c3nnn[nH]3)cc2)C1=O
Ratio [18]: >2.91 | MIC [7]: 8.41 µg/mL (≈ 16.8 µM) | Ratio [19]: >2.91 | MIC [9]: 8.58 µg/mL (≈ 17.2 µM)

COc1ccc(/C=C2\SC(=O)N(Cc3ccc(-c4ccccc4-c4nnn[nH]4)cc3)C2=O)cc1
Ratio [18]: >2.91 | MIC [7]: 8.33 µg/mL (≈ 17.7 µM) | Ratio [19]: >2.91 | MIC [9]: 7.7 µg/mL (≈ 16.4 µM)

N=C(N)Nc1nnn(Cc2cccc(Cn3nnc(C(=N)N)n3)c2)n1
MIC [6]: 30 to 40 µg/mL (≈ 87.9 to 117 µM) | MIC [7]: 30 to 40 µg/mL (≈ 87.9 to 117 µM) | MIC [20]: 30 to 40 µg/mL (≈ 87.9 to 117 µM) | MIC [21]: 30 to 40 µg/mL (≈ 87.9 to 117 µM) | MIC [9]: 30 to 40 µg/mL (≈ 87.9 to 117 µM) | MIC [22]: 30 to 40 µg/mL (≈ 87.9 to 117 µM) | MIC [23]: 30 to 40 µg/mL (≈ 87.9 to 117 µM)

CC1(C)S[C@@H]2[C@H](NC(=O)[C@H](N)c3ccc(O)cc3)C(=O)N2[C@H]1C(=O)O [AMOXICILLIN]
zone of inhibition at 30 µg/mL [24]: 25 to 28 mm | zone of inhibition at 250 µg/mL [25]: 21 to 27 mm | zone of inhibition at 30 µg/mL [26]: 25 to 28 mm | zone of inhibition at 30 µg/mL [27]: 25 to 28 mm | zone of inhibition at 250 µg/mL [28]: 21 to 27 mm | zone of inhibition at 30 µg/mL [29]: 25 to 28 mm | zone of inhibition at 250 µg/mL [30]: 21 to 27 mm | zone of inhibition at 250 µg/mL [31]: 21 to 27 mm | zone of inhibition at 250 µg/mL [32]: 21 to 27 mm | zone of inhibition at 250 µg/mL [33]: 21 to 27 mm | zone of inhibition at 30 µg/mL [34]: 25 to 28 mm | zone of inhibition at 250 µg/mL [35]: 21 to 27 mm | zone of inhibition at 30 µg/mL [36]: 25 to 28 mm

C[C@@H](O)[C@H]1C(=O)N2C(C(=O)O)=C(SCCN=CN)C[C@H]12 [IMIPENEM ANHYDROUS]
AUC [37]: 5500 ng·h/mL | t1/2 [38]: 3.46 h

CC(=O)N1CCN(c2ccc(OCC3COC(Cn4ccnc4)(c4ccc(Cl)cc4Cl)O3)cc2)CC1 (centres undefined) [KETOCONAZOLE]
MIC [7]: 100 µg/mL (≈ 188 µM) | zone of inhibition at 250 µg/mL [25]: 23 to 26 mm | zone of inhibition at 10 µg/mL [39]: 23 to 24 mm | zone of inhibition at 10 µg/mL [40]: 23 to 24 mm | MIC [41]: 100 µg/mL (≈ 188 µM) | zone of inhibition at 10 µg/mL [42]: 23 to 24 mm | zone of inhibition at 250 µg/mL [30]: 23 to 26 mm | zone of inhibition at 10 µg/mL [43]: 23 to 24 mm | zone of inhibition at 10 µg/mL [44]: 23 to 24 mm | zone of inhibition at 250 µg/mL [31]: 23 to 26 mm | zone of inhibition at 250 µg/mL [32]: 23 to 26 mm | zone of inhibition at 250 µg/mL [33]: 23 to 26 mm | zone of inhibition at 250 µg/mL [35]: 23 to 26 mm | zone of inhibition at 10 µg/mL [45]: 23 to 24 mm

C[C@@H](O)[C@H]1C(=O)N2C(C(=O)O)=C(S[C@@H]3CN[C@H](C(=O)N(C)C)C3)[C@H](C)[C@H]12 [MEROPENEM]
t1/2 [38]: 3.99 h | clearance [46]: 51.2 mL/min/kg
